Reference: patent US20250199015A1, “CYCLIN-DEPENDENT KINASE 2 INHIBITORS FOR MEDICAL TREATMENT” (INCYCLIX BIO, LLC, priority 2022, published 2025)
Entries after “also recorded” stand apart in the source; their conditions may differ.

How the values were obtained:
[1] = test system: Hs68 normal foreskin fibroblast cells; experiment: Cell cycle by EdU flow cytometry, normal fibroblasts; assay type: cell-based, human; settings: 300 nM, 24 hours, alone or in combination with cisplatin
Experimental: (§1) The Hs68 normal foreskin fibroblast cell line was grown in DMEM-high glucose/1× Glutamax/10% fetal bovine serum and was plated at 30,000 cells/well in Corning 6 well tissue culture treated plates. Cells were incubated at 37° C. for 24 hours prior to addition of the first treatment. […] Cells were treated to 24 hours post-initial treatment, with 10 μM EdU added at hour 23. Cells were collected and fixed in 1% paraformaldehyde. Cells were incubated with pacific blue azide dye as described by Thermo Scientific. Cells were then incubated with antibody against γ-H2AX at a ratio of 1:50 before incubation with FarRed dye and RNase. Cells were analyzed on a BD Celesta and data compiled using FloJo and GraphPad. Cell cycle profiles were evaluated following treatment via Flow Cytometry using FlowJo (v10.0) software.

[2] = test system: H526 cells; experiment: Cell cycle by EdU flow cytometry (nocodazole release, time course, cisplatin combination); assay type: cell-based, human; settings: 300 nM
Experimental: The H526 human lung carcinoma cell line was grown in RPMI-1640/1× Glutamax/10% fetal bovine serum and was plated at 200,000 cells/well in Corning 6 well tissue culture treated plates. Cells were incubated at 37° C. for 24 hours prior to addition of 50 ng/mL nocodazole to arrest the cells in G2/M. One plate was untreated for comparison. After 16 hours, the asynchronous well and one synchronized well were collected. […] Cells were incubated with 10 μM EdU for 1 hour prior to collected and were then fixed in 1% paraformaldehyde. Cells were incubated with Pacific blue azide dye as described by Thermo Scientific. Cells were then incubated with FarRed dye and RNase. Cells were analyzed on a BD Celesta and data compiled using FloJo and GraphPad (FIG. 23). Cells survived slightly better with lower nocodazole dose (50 vs 100 ng/mL) but there was still cell death observed, particularly following S phase after release.
The H526 human lung carcinoma cell line was grown in RPMI-1640/1× Glutamax/10% fetal bovine serum and was plated at 200,000 cells/well in Corning 6 cm tissue culture treated plates. […] Cells were treated for the indicated amount of time, with 10 μM EdU added for the last hour of treatment. Cells were collected and fixed in 1% paraformaldehyde. Cells were incubated with Alexa 488 azide dye as described by Thermo Scientific. Cells were then incubated with FarRed dye and RNase. Cells were analyzed on a BD Celesta and data compiled using FloJo and GraphPad (FIG. 24).
as §1, with “The H526 human lung carcinoma” for “The Hs68 normal foreskin fibroblast”, “in RPMI-1640/1×” for “in DMEM-high glucose/1×”, “at 200,000” for “at 30,000”, “6 cm” for “6 well”, “hour 23 (FIG. 28A).” for “hour 23.”, “GraphPad.” for “GraphPad. Cell cycle profiles were evaluated following treatment via Flow Cytometry using FlowJo (v10.0) software.”

[3] = test system: MKN-1 cell loaded Hollow Fibers; experiment: Mouse hollow fiber assay (CellTiter Glo); assay type: in vivo, mice; settings: 75, 100, 150 mg/kg twice daily, Day 16
Experimental: The mouse hollow fiber assay was conducted using three tumor cell lines, OVCAR-3 (ovarian), MKN-1 (gastric), and HCC-1569 (breast), 1e7 OVCAR-3, 5e6 MKN-1, and 1e7 HCC-1569 cells were loaded into Hollow Fibers, placed in cell culture dishes containing RPMI-1640 with 20% FCS and 1% penicillin/streptomycin, and were equilibrated in an incubator at 37 C, 5% CO2 overnight. On Day 0, three fibers were implanted in two different compartments: subcutaneous and intraperitoneal of twenty-four female NMRI nude mice ages 4-5 weeks. […] Female NMRI nude mice were implanted both subcutaneously and intraperitoneally with HCC-1569, MKN1, and OVCAR3 tumor cell-loaded Hollow Fibers on Day 0. The number of animals alive on Day 0 (implantation) and on Day 16 (necropsy) in each group is shown in parentheses in the legend.
MKN-1 cell loaded Hollow Fibers were implanted both subcutaneously and intraperitoneally into female NMRI nude mice on Day 0. Hollow Fibers were collected during necropsy on Day 16 and analyzed using a CellTiter Glo® assay.

[4] = GLP 28-day oral toxicity and toxicokinetics study; assay type: in vivo, Beagle dogs; settings: for AUC0-24 / AUC(0-t) / Cmax / Tmax: Beagle, po
Experimental: Nominal dose values and sampling times were used for calculations. Any concentration reported as BLQ (LLOQ<1.0 ng/mL) was set equal to zero. Toxicokinetic analyses included Cmax, Tmax, AUC0-24, t1/2, RA Cmax, and RA AUC0-24. Forty (20 per sex) Beagle dogs were randomly assigned to groups and dosed twice daily (approximately 8 hours+1-hour apart) via oral gavage for 28 consecutive days.
Based on the absence of dose-limiting toxicity, the 28-day highest nonseverely toxic dose (HNSTD) was 250 mg/kg BID (500 mg/kg/day).

[5] = test system: MMTV-rtTA/tetO-HER2 tumors; experiment: Abemaciclib-resistant HER2-overexpressing breast cancer mouse model; assay type: in vivo, mice; settings: Compound I 50 mg/kg BID + abemaciclib 50 mg/kg BID, out to day 38
Experimental: Breast cancer model mice overexpressing HER2 (MMTV-rtTA/tetO-HER2) were treated with abemaciclib until resistance to treatment was observed. […] The test agents were delivered at 5 mL/kg by oral gavage.

[6] = target: MATE1 (Homo sapiens, UniProt Q96FL8); experiment: SLC transporter inhibition in HEK293 cells
[7] = female, dog, in vivo, 20 mg/kg/day
[8] = female, dog, in vivo, 100 mg/kg/day
[9] = female, dog, in vivo, 500 mg/kg/day
[10] = male, dog, in vivo, 100 mg/kg/day
[11] = male, dog, in vivo, 500 mg/kg/day

Chain of MATE1 (Q96FL8 whole entry): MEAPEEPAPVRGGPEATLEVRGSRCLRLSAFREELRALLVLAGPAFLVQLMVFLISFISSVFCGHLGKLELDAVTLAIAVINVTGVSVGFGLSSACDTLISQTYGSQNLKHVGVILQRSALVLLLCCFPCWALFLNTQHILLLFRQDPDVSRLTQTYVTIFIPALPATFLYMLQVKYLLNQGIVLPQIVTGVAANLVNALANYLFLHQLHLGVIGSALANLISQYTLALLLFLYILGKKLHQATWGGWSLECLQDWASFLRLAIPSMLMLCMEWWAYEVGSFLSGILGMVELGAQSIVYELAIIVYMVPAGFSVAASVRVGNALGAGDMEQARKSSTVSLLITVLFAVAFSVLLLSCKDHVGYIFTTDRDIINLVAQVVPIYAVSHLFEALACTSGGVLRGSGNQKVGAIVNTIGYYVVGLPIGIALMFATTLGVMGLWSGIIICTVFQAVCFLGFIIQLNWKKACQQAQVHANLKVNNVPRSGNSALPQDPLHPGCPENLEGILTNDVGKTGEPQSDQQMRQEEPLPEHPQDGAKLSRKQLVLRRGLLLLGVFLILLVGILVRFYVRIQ

For NS(=O)(=O)c1ccc(Nc2ncc3cc4n(c3n2)C2(CCCCC2)C(=O)NN4)cc1 [Compound I], the cell cycle changes [1] was “Few cell cycle changes were observed”, the “S phase entry after nocodazole release” value [2] was “slower to enter S phase” and the “cells in G1 phase compared with PF-07104091” value ([2]; 24 hours) was “Substantially fewer H526 cells treated with Compound I were in G1 phase”. The “cells in G2/M phase compared to control” value ([2]; 24 hours) was “increase of cells in G2/M phase”, the “cells in S phase compared with PF-07104091” value ([2]; 48 hours) was “substantially fewer H526 cells treated with Compound I were in S phase” and the “tumor bioluminescence signal (CellTiter Glo) of Hollow Fibers” value [3] was “only observed in mice administered Compound I intraperitoneally at 75 mg/kg twice per day”. The tolerability ([4]; PO, up to 28 days, up to 250 mg/kg BID) was “generally well tolerated; also recorded: well tolerated with no dose-limiting toxicities observed”, the “28-day NOAEL” value ([4]; dog, in vivo) was “did not identify a 28-day NOAEL” and the “accumulation after 28 days of BID dosing” value ([4]; dog, in vivo) was “Modest accumulation”. The bone marrow cellularity ([4]; dog, in vivo) was “moderately decreased bone marrow cellularity”, the AUC0-24 [4, 7] was 1680 ng·h/mL and the AUC(0-t) ([4]; female, dog, in vivo, 20 mg/kg/day, AUC0-24) was 2600 ng·h/mL. It also gave a Cmax ([4]; female, dog, in vivo, 20 mg/kg/day, Cmax) of 267 ng/mL, a Tmax [4, 7] of 8.8 h and an AUC0-24 [4, 8] of 5170 ng·h/mL. The AUC(0-t) ([4]; female, dog, in vivo, 100 mg/kg/day, AUC0-24) was 9160 ng·h/mL, the Cmax ([4]; female, dog, in vivo, 100 mg/kg/day, Cmax) was 725 ng/mL and the Tmax [4, 8] was 10 h. For the same compound, the AUC(0-t) ([4]; female, dog, in vivo, 250 mg/kg, plasma AUC0-24) was 11700 ng·h/mL, the Cmax ([4]; female, dog, in vivo, 250 mg/kg, plasma Cmax) was 961 ng/mL and the AUC0-24 [4, 9] was 11700 ng·h/mL. For the same compound, the AUC(0-t) ([4]; female, dog, in vivo, 500 mg/kg/day, AUC0-24) was 10100 ng·h/mL, the Cmax ([4]; female, dog, in vivo, 500 mg/kg/day, Cmax) was 919 ng/mL and the Tmax [4, 9] was 14 h. It also gave an AUC(0-t) ([4]; female, dog, in vivo, plasma AUC0-24) of 2600 ng·h/mL, a Cmax ([4]; female, dog, in vivo, plasma Cmax) of 267 ng/mL and an AUC0-24 ([4]; male, dog, in vivo, 20 mg/kg/day) of 1430 ng·h/mL. For the same compound, the AUC(0-t) ([4]; male, dog, in vivo, 20 mg/kg/day, AUC0-24) was 2460 ng·h/mL, the AUC0-24 [4, 10] was 10600 ng·h/mL and the AUC(0-t) ([4]; male, dog, in vivo, 100 mg/kg/day, AUC0-24) was 6210 ng·h/mL. For the same compound, the Cmax ([4]; male, dog, in vivo, 100 mg/kg/day, Cmax) was 459 ng/mL, the Tmax [4, 10] was 12 h and the AUC(0-t) ([4]; male, dog, in vivo, 250 mg/kg, plasma AUC0-24) was 18800 ng·h/mL. It also gave a Cmax ([4]; male, dog, in vivo, 250 mg/kg, plasma Cmax) of 1500 ng/mL, an AUC0-24 [4, 11] of 18800 ng·h/mL and an AUC(0-t) ([4]; male, dog, in vivo, 500 mg/kg/day, AUC0-24) of 13300 ng·h/mL. The Cmax ([4]; male, dog, in vivo, 500 mg/kg/day, Cmax) was 1220 ng/mL, the Tmax [4, 11] was 14 h and the AUC(0-t) ([4]; male, dog, in vivo, plasma AUC0-24) was 2460 ng·h/mL. For the same compound, the Cmax ([4]; male, dog, in vivo, plasma Cmax) was 307 ng/mL, the tumor growth [5] was “substantially reduced tumor growth relative to either agent administered alone” and the IC50 ([6]; MATE1 IC50) was 13.3 µM. It also gave an inhibition at 20 μM ([6]; human, HEK293 cells expressing MATE1, probe metformin (10 μM)) of 62%.
